{
  "source": "paper PMC7127258",
  "about": "(European Journal of Medicinal Chemistry, 2013)",
  "key": {"[1]": {"tested_on": "interferon", "details": "rodents and cats; administered orally or intraperitoneally; cited from earlier work"}, "[2]": {"tested_on": "renal papillae of rats", "details": "cited from earlier work"}, "[3]": {"tested_on": "vesicular stomatitis virus (VSV)", "assay_type": "cell-based"}},
  "data": [
    {"compound": "Cc1nc(N)nc(O)c1Br", "note": "[Compound 6, 2-amino-5-bromo-6-methyl-4(3H)-pyrimidinone]", "values": [
      {"measurement": "Interferon induction", "setting": "[1]", "result": "reported to induce interferon"},
      {"measurement": "Toxicity upon chronic administration", "setting": "[2]", "result": "toxicity-limiting crystal deposition in the renal papillae of rats"}
    ]},
    {"compound": "CCCCCc1nc(N)[nH]c(=O)c1Br", "note": "[Compound 14c, 2-Amino-5-bromo-6-pentylpyrimidin-4(3H)-one]", "values": [
      {"measurement": "EC50 vesicular stomatitis virus", "setting": "[3]", "result": "anti-VSV activity was not observed in HEL cell cultures"}
    ]}
  ]
}
